Tests used:
[1] = system: SipD-antigen-specific IgG; assay: Vaccination in chicken with SipD as an antigen, serum IgG ELISA; format: in vivo, Leghorn chicken; details: triple adjuvant composition (20 μg polyphosphazene: 40 μg IDR-1002: 20 μg Poly(I:C)) with 10 μg SipD, intramuscular, after two immunizations (Week 4), FIG. 1B
Experimental: To assess the adjuvant activity of cyclopolyphosphazene candidates, such as 37, 11 and 39, an in vivo study was conducted with intramuscular administration of a Salmonella typhimurium Cell invasion protein (SipD) vaccine in young chicken. Two-week-old Leghorn chicken were randomly divided into three single adjuvant groups, three triple adjuvant groups and one PBS-adjuvant control group (n=12/group). The single adjuvant groups contained 20 μg PCEP, 11 or 37 polyphosphazene. All triple adjuvants comprised Poly(I:C), IDR-1002 peptide and a polyphosphazene: either PCEP, 37 or 11.
All vaccines were formulated prior to administration and injected in 200 μL intramuscularly in the tail area. Chicken were vaccinated at Day 0 and Day 14 (Week 2) with the same dose. […]
Serum was collected on days 0, 14 and 28 for SipD-antigen-specific IgG ELISAs. […] Plates were read with a Molecular Devices SpectraMax Plus 384 Reader™. Data were expressed as titres, which represent the dilution factor required to generate an absorbance reading two standard deviations above the average value of the negative control, e.g. serum from control chicken receiving no vaccination.

antigen-specific IgG1 = assay: Vaccination in mice with ovalbumin as an antigen, serum IgG1 ELISA; format: in vivo, Balb/c mice; details: triple adjuvant composition (10 μg polyphosphazene: 20 μg IDR-1002: 10 μg Poly(I:C)) with Ova 50 μg or 1 μg, intramuscular, after two immunizations (Week 8), FIGS. 2 and 5
Experimental: (§1) To assess the adjuvant activity of the cyclopolyphosphazene 37, four in vivo studies were conducted with intramuscular administration of an ovalbumin (Ova) vaccine in mice. In the first two studies, the Ova vaccine was either formulated with no adjuvant or with a triple adjuvant (TriAdj). The first two studies compared three different triple adjuvants, all comprising Poly(I:C), IDR-1002 peptide and a polyphosphazene: either PCEP, 37 or 11. The third and fourth studies compared four different triple adjuvants, all comprising Poly(I:C), IDR-1002 peptide and a polyphosphazene: either PCEP, compound 11, compound 37 or compound 39.
(§2) In all studies, mice were randomized to cages such that the various treatment groups were not together in the same cage. All groups received Ova antigen mixed with the adjuvant (or not) just prior to intramuscular administration. All the vaccines were formulated and injected in 50 μL (25 μ/leg). Mice were vaccinated at Day 0 and Day 28 (Week 4) with the same dose.
(§3) In all studies, serum was collected on days 0, 28 and 56 for antigen-specific IgG1 and IgG2a ELISAs. […] Plates were read with a Biorad iMark Microplate Reader™. Data were expressed as titres, which represent the dilution factor required to generate an absorbance reading three standard deviations above the average value of the negative control, e.g. serum from control mice receiving no vaccination. […]

antigen-specific IgG2a = assay: Vaccination in mice with ovalbumin as an antigen, serum IgG2a ELISA; format: in vivo, Balb/c mice; details: triple adjuvant composition (10 μg polyphosphazene: 20 μg IDR-1002: 10 μg Poly(I:C)) with Ova 50 μg or 1 μg, intramuscular, after two immunizations (Week 8), FIGS. 3 and 5
Experimental: as §1, §2, §3

CCCCCCCCCCCC(=O)NCCCCCCNC(=O)C(CCCCN)NC(=O)CCc1ccc(OP2(Oc3ccc(CCC(=O)NC(CCCCN)C(=O)NCCCCCCNC(=O)CCCCCCCCCCC)cc3)=NP(Oc3ccc(CCC(=O)NC(CCCCN)C(=O)NCCCCCCNC(=O)CCCCCCCCCCC)cc3)(Oc3ccc(CCC(=O)NC(CCCCN)C(=O)NCCCCCCNC(=O)CCCCCCCCCCC)cc3)=NP(Oc3ccc(CCC(=O)NC(CCCCN)C(=O)NCCCCCCNC(=O)CCCCCCCCCCC)cc3)(Oc3ccc(CCC(=O)NC(CCCCN)C(=O)NCCCCCCNC(=O)CCCCCCCCCCC)cc3)=N2)cc1 (stereo not drawn) [Compound 37, N,N′,N″,N′″,N″″,N′″″-(((2,2′,2″,22′″,2″″,2′″″-((3,3′,3″,3′″,3″″,3′″″-(((1,3,5,2l5,4l5,6l5-triazatriphosphinine-2,2,4,4,6,6-hexayl)hexakis(oxy))hexakis(benzene-4,1-diyl))hexakis(propanoyl))hexakis(azanediyl))hexakis(6-aminohexanoyl))hexakis(azanediyl))hexakis(hexane-6,1-diyl))hexadodecanamide]
significantly greater response: antigen-specific IgG titres relative to a vaccine without adjuvant [1] | response in IgG1 relative to a vaccine without adjuvant (antigen-specific IgG1) | response in IgG2a relative to a vaccine without adjuvant (antigen-specific IgG2a)

Reference: patent publication US20240199663A1, “Cyclopolyphosphazenes, Related Methods of Preparation and Methods of Use” (University of Saskatchewan, priority 2021, published 2024)
